Reference: patent publication US9708314B2, “Heterocyclic amide compound” (NISSAN CHEMICAL INDUSTRIES, LTD., priority 2013, dated 2017)

Key:
Assay type in all cases: in vivo
[1] = system: Amaranthus retroflexus; test: Test Example 4: herbicidal effect by application to foliage (diluvial soil, plastic box); settings: for herbicidal effect, N (Amaranthus retroflexus): application to foliage, 320 g/ha
Procedure, shortened: (§1)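 Emulsion-formulated compound, diluted to a predetermined g/ha dose, applied by small sprayer to leaves and stems of 14-day-old seedlings grown in sterilized diluvial soil. Effect rated on 0–5 herbicidal-ratio scale three weeks on.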

[2] = system: Lolium multiflorum Lam.; test: as above; settings: for herbicidal effect, K (Lolium multiflorum Lam.): application to foliage, 320 g/ha
Procedure, shortened: as §1

[3] = system: Avena fatua; test: as above; settings: for herbicidal effect, I (Avena fatua): application to foliage, 320 g/ha
Procedure, shortened: as §1

[4] = system: Stellaria media; test: as above; settings: for herbicidal effect, P (Stellaria media): application to foliage, 320 g/ha
Procedure, shortened: as §1

[5] = system: Digitaria ciliaris; test: as above; settings: for herbicidal effect, F (Digitaria ciliaris): application to foliage, 320 g/ha
Procedure, shortened: as §1

[6] = system: Apera spica-venti.; test: as above; settings: for herbicidal effect, L (Apera spica-venti.): application to foliage, 320 g/ha
Procedure, shortened: as §1

[7] = system: Alopecurus myosuroides; test: as above; settings: for herbicidal effect, J (Alopecurus myosuroides): application to foliage, 320 g/ha
Procedure, shortened: as §1

[8] = system: Echinochloa crus-galli var. crus-galli; test: as above; settings: for herbicidal effect, H (Echinochloa crus-galli var. crus-galli): application to foliage, 320 g/ha
Procedure, shortened: as §1

[9] = system: Veronica persica; test: as above; settings: for herbicidal effect, R (Veronica persica): application to foliage, 320 g/ha
Procedure, shortened: as §1

[10] = system: Chenopodium album; test: as above; settings: for herbicidal effect, O (Chenopodium album): application to foliage, 320 g/ha
Procedure, shortened: as §1

[11] = system: Setaria viridis; test: as above; settings: for herbicidal effect, G (Setaria viridis): application to foliage, 320 g/ha
Procedure, shortened: as §1

[12] = system: Galium spurium; test: as above; settings: for herbicidal effect, Q (Galium spurium): application to foliage, 320 g/ha
Procedure, shortened: as §1

[13] = system: Abutilon theophrasti; test: as above; settings: for herbicidal effect, M (Abutilon theophrasti): application to foliage, 320 g/ha
Procedure, shortened: as §1

[14] = system: directly sowed Oryza sativa; test: Test Example 3: effect on crop by application to foliage (Wagner pot, water depth 0.1-0.5 cm); settings: Nineteenth Table; application to foliage; application herbicide amount 320 g/ha
Procedure, shortened: (§2)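 Foliar spray, 14-day-old plants, emulsion diluted to target g/ha; rated 3 wk post-application, 0–5 scale (0 ≤5%, 5 ≥90% herbicidal ratio). Greenhouse 25–30 °C, alluvial soil.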

[15] = system: Glycine max; test: Test Example 4: effect on crop by application to foliage (diluvial soil, plastic box); settings: for effect on crop, c (Glycine max): application to foliage, 320 g/ha
Procedure, shortened: as §1

[16] = system: Zea mays; test: as above; settings: for effect on crop, b (Zea mays): application to foliage, 320 g/ha
Procedure, shortened: as §1

[17] = system: Brassica campestris L.; test: as above; settings: for effect on crop, g (Brassica campestris L.): application to foliage, 320 g/ha
Procedure, shortened: as §1

[18] = system: Beta vulgaris ssp. vulgaris; test: as above; settings: for effect on crop, f (Beta vulgaris ssp. vulgaris): application to foliage, 320 g/ha
Procedure, shortened: as §1

[19] = system: Triticum aestivum; test: as above; settings: for effect on crop, e (Triticum aestivum): application to foliage, 320 g/ha
Procedure, shortened: as §1

[20] = system: directly sowed Oryza sativa; test: as above; settings: for effect on crop, d (directly sowed Oryza sativa): application to foliage, 320 g/ha
Procedure, shortened: as §1

[21] = system: Leptochloa chinensis; test: Test Example 3: herbicidal effect by application to foliage (Wagner pot, water depth 0.1-0.5 cm); settings: Nineteenth Table; application to foliage; application herbicide amount 320 g/ha
Procedure, shortened: as §2

[22] = system: Cyperus difformis; test: as above; settings: Nineteenth Table; application to foliage; application herbicide amount 320 g/ha
Procedure, shortened: as §2

[23] = system: Echinochloa crus-galli var. crus-galli; test: as above; settings: Nineteenth Table; application to foliage; application herbicide amount 320 g/ha
Procedure, shortened: as §2

[24] = Application herbicide amount 320 g/ha, foliage application

Row | Compound | herbicidal effect, N (Amaranthus retroflexus) [1] | herbicidal effect, K (Lolium multiflorum Lam.) [2] | herbicidal effect, I (Avena fatua) [3] | herbicidal effect, P (Stellaria media) [4] | herbicidal effect, F (Digitaria ciliaris) [5] | herbicidal effect, L (Apera spica-venti.) [6] | herbicidal effect, J (Alopecurus myosuroides) [7] | herbicidal effect, H (Echinochloa crus-galli var. crus-galli) [8] | herbicidal effect, R (Veronica persica) [9] | herbicidal effect, O (Chenopodium album) [10] | herbicidal effect, G (Setaria viridis) [11] | herbicidal effect, Q (Galium spurium) [12] | herbicidal effect, M (Abutilon theophrasti) [13] | b (effect on crop grade) [14] | effect on crop, c (Glycine max) [15] | effect on crop, b (Zea mays) [16] | effect on crop, g (Brassica campestris L.) [17] | D (herbicidal effect grade) [21] | E (herbicidal effect grade) [22] | H (herbicidal effect grade) [23] | also measured
1 | CCn1nc2c(C(=O)Nc3nnc(C)o3)ccc(C(F)(F)F)n2c1=O [6-003] | 2 (Herbicidal ratio of 20% or more and less than 40%) | 0 (Herbicidal ratio of 5% or less (almost no effect)) | 0 (Herbicidal ratio of 5% or less (almost no effect)) | 4 (Herbicidal ratio of 70% or more and less than 90%) | 4 (Herbicidal ratio of 70% or more and less than 90%) | 0 (Herbicidal ratio of 5% or less (almost no effect)) | 0 (Herbicidal ratio of 5% or less (almost no effect)) | 3 (Herbicidal ratio of 40% or more and less than 70%) | 1 (Herbicidal ratio of 5% or more and less than 20%) | 3 (Herbicidal ratio of 40% or more and less than 70%) | 3 (Herbicidal ratio of 40% or more and less than 70%) | 1 (Herbicidal ratio of 5% or more and less than 20%) | 4 (Herbicidal ratio of 70% or more and less than 90%) | 0 (Herbicidal ratio of 5% or less (almost no effect)) | 0 (Herbicidal ratio of 5% or less (almost no effect)) | 0 (Herbicidal ratio of 5% or less (almost no effect)) | 0 (Herbicidal ratio of 5% or less (almost no effect)) | 5 (Herbicidal ratio of 90% or more (almost completely withered)) | 0 (Herbicidal ratio of 5% or less (almost no effect)) | 1 (Herbicidal ratio of 5% or more and less than 20%) | effect on crop, f (Beta vulgaris ssp. vulgaris) [18]: 1 (Herbicidal ratio of 5% or more and less than 20%); effect on crop, e (Triticum aestivum) [19]: 0 (Herbicidal ratio of 5% or less (almost no effect)); effect on crop, d (directly sowed Oryza sativa) [20]: 0 (Herbicidal ratio of 5% or less (almost no effect))
2 | Cc1nnc(NC(=O)c2ccc(C(F)(F)F)n3c(SCC#N)nnc23)o1 [1-117] |  |  |  |  |  |  |  |  |  |  |  |  |  | 0 (Herbicidal ratio of 5% or less (almost no effect)) |  |  |  | 4 (Herbicidal ratio of 70% or more and less than 90%) | 2 (Herbicidal ratio of 20% or more and less than 40%) | 4 (Herbicidal ratio of 70% or more and less than 90%) | N (Amaranthus retroflexus) herbicidal effect grade [1, 24]: 3 (Herbicidal ratio of 40% or more and less than 70%); K (Lolium multiflorum Lam.) herbicidal effect grade [2, 24]: 0 (Herbicidal ratio of 5% or less (almost no effect)); I (Avena fatua) herbicidal effect grade [3, 24]: 0 (Herbicidal ratio of 5% or less (almost no effect)); P (Stellaria media) herbicidal effect grade [4, 24]: 3 (Herbicidal ratio of 40% or more and less than 70%); F (Digitaria ciliaris) herbicidal effect grade [5, 24]: 1 (Herbicidal ratio of 5% or more and less than 20%); L (Apera spica-venti.) herbicidal effect grade [6, 24]: 0 (Herbicidal ratio of 5% or less (almost no effect)); J (Alopecurus myosuroides) herbicidal effect grade [7, 24]: 0 (Herbicidal ratio of 5% or less (almost no effect)); H (Echinochloa crus-galli var. crus-galli) herbicidal effect grade [8, 24]: 4 (Herbicidal ratio of 70% or more and less than 90%); R (Veronica persica) herbicidal effect grade [9, 24]: 3 (Herbicidal ratio of 40% or more and less than 70%); O (Chenopodium album) herbicidal effect grade [10, 24]: 5 (Herbicidal ratio of 90% or more (almost completely withered)); G (Setaria viridis) herbicidal effect grade [11, 24]: 1 (Herbicidal ratio of 5% or more and less than 20%); Q (Galium spurium) herbicidal effect grade [12, 24]: 1 (Herbicidal ratio of 5% or more and less than 20%); M (Abutilon theophrasti) herbicidal effect grade [13, 24]: 3 (Herbicidal ratio of 40% or more and less than 70%); d (Glycine max) effect on crop grade [15, 24]: 3 (Herbicidal ratio of 40% or more and less than 70%); c (Zea mays) effect on crop grade [16, 24]: 0 (Herbicidal ratio of 5% or less (almost no effect)); g (Brassica campestris L.) effect on crop grade [17, 24]: 1 (Herbicidal ratio of 5% or more and less than 20%); f (Beta vulgaris ssp. vulgaris) effect on crop grade [18, 24]: 3 (Herbicidal ratio of 40% or more and less than 70%); e (Triticum aestivum) effect on crop grade [19, 24]: 0 (Herbicidal ratio of 5% or less (almost no effect)); b (directly sowed Oryza sativa) effect on crop grade [20, 24]: 0 (Herbicidal ratio of 5% or less (almost no effect))
3 | CCn1ncnc1NC(=O)c1ccc(C(F)(F)F)n2c(C(C)C)nnc12 [4-002] | 4 (Herbicidal ratio of 70% or more and less than 90%) | 0 (Herbicidal ratio of 5% or less (almost no effect)) | 1 (Herbicidal ratio of 5% or more and less than 20%) | 3 (Herbicidal ratio of 40% or more and less than 70%) | 1 (Herbicidal ratio of 5% or more and less than 20%) | 0 (Herbicidal ratio of 5% or less (almost no effect)) | 0 (Herbicidal ratio of 5% or less (almost no effect)) | 2 (Herbicidal ratio of 20% or more and less than 40%) | 1 (Herbicidal ratio of 5% or more and less than 20%) | 4 (Herbicidal ratio of 70% or more and less than 90%) | 1 (Herbicidal ratio of 5% or more and less than 20%) | 1 (Herbicidal ratio of 5% or more and less than 20%) | 5 (Herbicidal ratio of 90% or more (almost completely withered)) | 0 (Herbicidal ratio of 5% or less (almost no effect)) | 0 (Herbicidal ratio of 5% or less (almost no effect)) | 0 (Herbicidal ratio of 5% or less (almost no effect)) | 0 (Herbicidal ratio of 5% or less (almost no effect)) | 4 (Herbicidal ratio of 70% or more and less than 90%) | 0 (Herbicidal ratio of 5% or less (almost no effect)) | 0 (Herbicidal ratio of 5% or less (almost no effect)) | effect on crop, f (Beta vulgaris ssp. vulgaris) [18]: 0 (Herbicidal ratio of 5% or less (almost no effect)); effect on crop, e (Triticum aestivum) [19]: 0 (Herbicidal ratio of 5% or less (almost no effect)); effect on crop, d (directly sowed Oryza sativa) [20]: 1 (Herbicidal ratio of 5% or more and less than 20%)
